These results are taken from a melting point compilation (Tetko et al.; mined from patent text by program, amines drawn as free bases though some values may be those of a salt).

SMILES strings stand for the structures. Where only a bound is given, the exact number is not on record here.

For orientation: melting point means the temperature, or range, at which the solid turns liquid. `O=C(Nc1cccc(Br)n1)Nc1cccc2c1C1CCCCN1C2=O` (centres undefined): the melting point was 218 to 220 °C.

In turn, `C[C@@H]1CN(CCNC(=S)N(C)C)CC[C@@H]1Nc1nc2ccccc2n1Cc1ccc(F)cc1` (relative stereo) yielded a melting point of 127 °C.

For the molecule `CC(=O)OCCn1cncc1[N+](=O)[O-]`, the melting point was 61 to 62 °C.

On to `CCCNC(=S)NCCCCn1c(-c2ccccc2)nc2c(N)nc3ccccc3c21`, for which the melting point was 113 to 116 °C.

Take `O=c1nc(-c2ccccc2)c2ccsc2[nH]1`: the melting point fell in the range of 247 to 249 °C.

`CN(C)C(N)=C(C#N)C#N` gave a melting point of 228 to 229 °C.

On to `CCc1nc2c(N)nc3cc(CCNS(C)(=O)=O)ccc3c2n1CC(C)(C)O`, for which the melting point lay in the range of 149 to 152 °C.

In turn, `CCS(=O)(=O)c1c(CS(=O)(=O)C2=NOC(C)(C)C2)c(C(F)(F)F)nn1-c1ccccc1` had a melting point of 158 to 160 °C.

Molecule `COc1cc(OC)c(-c2nc(C)no2)cc1C=O` had a melting point of 182 to 183 °C.

`O=C(/C=C/[C@@H]1[C@H]2CC(=O)O[C@H]2C[C@H]1OC(=O)c1ccccc1)CCc1ccccc1` gave a melting point of 119 to 120 °C.

As for `O=C1NC(=O)C(O)(c2c[nH]c3ccc(Br)cc23)C(=O)N1`, the melting point was over 250 °C.

`CCCS(=O)(=O)c1ccc(NS(=O)(=O)c2cccs2)c2[nH]c(C3=NCCS3)cc12`: the melting point was in the range of 101 to 102 °C.

`CCCc1cc(C(=O)NCc2ccccn2)ccc1OC(C(=O)NS(=O)(=O)c1ccc(C(C)C)cc1)c1ccc2c(c1)OCO2` (centres undefined) returned a melting point of 168 to 170 °C.

The molecule `CCCCSc1c[nH]nc1C1CN2CCC1CC2` (centres undefined) registered a melting point of 162 to 164 °C.

`CCOC(=O)C1=Cc2cc(OCC(=O)c3ccc(Br)cc3)ccc2OC1C(F)(F)F` (centres undefined): the melting point lay in the range of 130 to 132 °C.

As for `Cn1ccnc1NC(=S)Nc1ccccc1`, the melting point lay within 170 to 172 °C.

The molecule `O=C(O)COc1c(-c2ccccc2)c(=O)[nH]c2cc(Cl)ccc12` had a melting point of 269 to 272 °C.

With `O=C1CNC(c2ccc(Cl)cc2)=NN1CC(F)(F)F`, the melting point was 178 to 180 °C.

Turning to `CC(C)(C)OC(=O)N1CCN(c2ccc(N3CC(CN=[N+]=[N-])OC3=O)cc2F)CC1` (centres undefined), the melting point lay in the range of 101 to 104 °C.

As for `CC1(O)ON=C(c2ccc(Br)cc2)C1c1ccccc1` (centres undefined), the melting point came out at 153 °C.

For `Nc1sc2c(c1C(=O)c1ccc3ccccc3c1)CCC(Cc1ccccc1)C2` (centres undefined), the melting point is 69 to 70 °C.

Regarding `COCCc1nc2c(N)nc3ccccc3c2n1CCCCNC(=O)c1ccc(-n2cccc2)cc1`, the melting point was in the range of 173 to 175 °C.

The molecule `CCC(=O)c1ccc(O)c(CNC(=O)CCl)c1` had a melting point of 143 to 145 °C.

Molecule `CCN(CC)CCOc1ccc(Nc2ncc3c(n2)N(CC)C(=O)N(c2cc(OC)cc(OC)c2)C3)cc1` displayed a melting point of 139 to 141 °C.

`CC1=C(C(=O)OCCOc2ccc(C(=O)c3ccccc3)c(O)c2)CC(C(=O)OCCOc2ccc(C(=O)c3ccccc3)c(O)c2)=C(C)N1` had a melting point of 188 °C.

For the molecule `COc1nc(OC)nc(-n2c(N)nc3cc(Cl)ccc32)n1`, the melting point lay within 293 to 296 °C.

`CC(=NC#N)N[C@@H]1c2cc(C#N)ccc2OC(C)(C)[C@H]1O` (relative stereo): the melting point lay in the range of 236 to 238 °C.

With `CCCCCCCCCCCCCCOc1cc(OCCCOc2ccc(OCc3ccccc3)cc2)cc(C(=O)OC)c1`, the melting point lay in the range of 69 to 70 °C.

In turn, `COc1ccc(CC(N)=O)cc1OC` registered a melting point of 142 to 144 °C.

As for `O=C(c1ccccc1)c1[nH]c2cc(Cl)ccc2c1CC(=O)N1CCOCC1`, the melting point is 188 to 190 °C.

As for `COC(=O)C[C@@H](SCc1ccccc1)C(=O)O`, the melting point lay within 91 to 92 °C.

The molecule `S=c1[nH]ccc2ccsc12` registered a melting point of 187 to 189 °C.

In turn, `Cc1cc(C(=O)NN=C(N)CS(=O)(=O)c2ccccc2)oc1C` showed a melting point of 197 to 199 °C.

The molecule `c1cnc(N2CCN(Cc3ccc4c(c3)SCO4)CC2)nc1` displayed a melting point of 90 to 91 °C.

Molecule `Cc1oc(C2=NOC(c3cc(Cl)cc(Cl)c3)(C(F)(F)F)C2)cc1C(=O)NCC(=O)NCC(F)(F)F` (centres undefined) gave a melting point of 172 to 174 °C.

Consider `CC(SC(=O)c1ccccc1)C(=O)N1c2ccccc2CCC1C(=O)O` (centres undefined), for which the melting point was 157 to 159 °C.

Regarding `COC(=O)CCCCCSc1ccc(-c2ccc(Cl)cc2)cc1`, the melting point is 87 to 88 °C.

`Cc1ncc2n1-c1ccc(Cl)cc1C(c1ccccc1)=[N+]([O-])C2` gave a melting point of 260 to 261 °C.

`COc1cccc(-c2cncc(OC3SCC(O)C(O)C3O)c2)c1` (centres undefined): the melting point was 200 °C.

The molecule `FC(F)(F)c1[nH]c(-c2ccc(Cl)cc2)cc1-c1csc(Br)c1` had a melting point of 112 to 115 °C.

As for `Cc1c(Cc2cccc(C(F)(F)F)c2F)c2ccc(Cl)c(Cl)c2n1CCCNS(C)(=O)=O`, the melting point amounted to 139 °C.

With `CN1CCC(=C2c3ccsc3C(=O)Cn3ccnc32)CC1`, the melting point amounted to 153 °C.

Turning to `CS(=O)(=O)c1ccc(Oc2ccc(C(=O)c3ccccc3)cc2)nc1`, the melting point fell in the range of 130 to 132 °C.

In turn, `CCOC(=O)c1nn(-c2ccc(Cl)cc2Cl)c(-c2ccc(Cl)cc2)c1C#N` had a melting point of 112 °C.

`CC(=O)OCc1nc2nc(O)cnc2c(=O)[nH]1`: the melting point was over 300 °C.

In the case of `CCCCCCCCN1N=C(C)CC1=O`, the melting point worked out at 59 °C.

Turning to `COC1(OC)SC(c2nccs2)=C(C)NC1=O`, the melting point lay in the range of 127 to 128 °C.

`Cc1cc(-n2nc(C(F)F)cc2-c2ccc(S(C)(=O)=O)cc2)ccc1Br` came in with a melting point of 141 to 142 °C.

In turn, `CCOC(=O)/C(N)=C/C(=O)/C=C/c1ccc(Cl)cc1F` displayed a melting point of 102 to 103 °C.

Take `CC(C)c1nccn1N=Cc1ccccc1`: the melting point is 65 to 66 °C.

For `N#CCN1CCCC(OC(c2ccccc2)c2ccccc2)C1` (centres undefined), the melting point was in the range of 97 to 99 °C.

`Cc1c(C(=O)OC(C)C)ncc2c1c1c(OCc3ccccc3)cccc1n2CC(=O)N(C)CCc1ccccc1` yielded a melting point of 69 to 74 °C.

In turn, `CN(C)C(N)=Nc1cc(Cl)ccc1N1CCOCC1` had a melting point of 135 to 138 °C.

As to `C=C1N(CC)C(=O)OC12CCN(CCC=C(c1ccc(F)cc1)c1ccc(F)cc1)CC2`, the melting point was 138 to 139 °C.

`O=C1c2ccccc2S(=O)(=O)N1CCCCN1CCC2(CC1)Cc1ccccc1O2` returned a melting point of 98 to 100 °C.

`O=C1OCc2cc(C(F)(F)F)ccc21` displayed a melting point of 71 to 72 °C.

In turn, `O=C1NC(=O)C(Cc2ccc3c(c2)CCCN3Cc2ccccc2)S1` (centres undefined) displayed a melting point of 155 to 158 °C.

`CCOC(=O)C=Cc1ccc(OC)nc1`: the melting point lay within 49 to 52 °C.

With `CNS(=O)(=O)Cc1ccc2[nH]cc(CCN)c2c1`, the melting point fell in the range of 179 to 181 °C.

Consider `Cc1ccc(-c2ccc3c(c2)C=C(C(=O)Nc2ccc(CN4CCC(O)CC4)cc2)CC3)cc1`, for which the melting point is 223 to 224 °C.

As to `COC(=O)C(O)CCNc1ncc(N)cc1N` (centres undefined), the melting point fell in the range of 229 to 230 °C.

With `COc1cc(Nc2nccc(-c3ccc(OCc4ccccc4)cc3)n2)cc(OC)c1OC`, the melting point fell in the range of 171 to 172 °C.

Molecule `CN1N=C(c2ccccc2)C(C)(Cc2ccccc2)NC1=O` (centres undefined) registered a melting point of 174 to 175 °C.

Molecule `CCNC(=S)NC1CC(C)(C)NC(C)(C)C1` yielded a melting point of 134 °C.

Molecule `CCOC(=O)c1cncc(C(=O)OCC)c1` yielded a melting point of 42 to 44 °C.

`CCOC(=O)c1c(C)cc2c(c1C)c(=O)n(-c1ccccc1Cl)c(=O)n2CCCN(C)C`: the melting point was 155 to 156 °C.

Take `CCOC(=O)c1cccnc1N`: the melting point lay within 90.5 to 92.5 °C.

Molecule `O=C(Cl)c1ccc(C#Cc2ccccc2C(=O)Cl)cc1` came in with a melting point of 79 to 85 °C.

The molecule `CC(=O)NC[C@H]1CN(c2ccc(C(=O)c3cnc4cc(-c5ccccc5)ccn34)cc2)C(=O)O1` displayed a melting point of 256 to 258 °C.

`CCOC(=O)C1CCC(c2ccccc2)n2c(=O)n(CCCl)c(=O)n21` (centres undefined) showed a melting point of 87 to 89 °C.

As to `COc1ccc(O[C@@H]2CCNC[C@H]2O)cc1` (relative stereo), the melting point fell in the range of 171 to 173 °C.

`Nc1cnc(-c2ccccc2)nc1C(=O)O` returned a melting point of 199 to 202 °C.

Consider `COc1cccc(N2CC(=O)N(C)C(=O)N2)c1`, for which the melting point lay in the range of 120 to 122 °C.

Regarding `NC(CNCCO)(CC(=O)O)c1ccccc1` (centres undefined), the melting point is 140 to 143 °C.

`CCOC(=O)c1sc2ccc(O)c(C=Nc3ccc(OC)cc3)c2c1Cl` returned a melting point of 162 to 163 °C.

Turning to `Cc1nnc2c3[nH]cnc3n(Cc3ccccc3)c(=O)n12`, the melting point is 309 to 310 °C.

Turning to `CSc1ccc(NC(=O)CN2CCN(CCSc3nc4ccccc4o3)CC2)c(C)n1`, the melting point lay within 116 to 117 °C.

Take `O=C(O)c1cc(F)ccc1S`: the melting point is 185 °C.

In turn, `CCOC(=O)c1cnc2nc(C)c(OCC)cc2c1O` had a melting point of 255 to 258 °C.

In the case of `CCOC(=O)c1c(Cn2cncn2)nc2ccc(Cl)cc2c1-c1ccccc1`, the melting point is 114 to 116 °C.

`O=c1c2ccc(Cl)cc2[nH]c2c(O)nn(-c3ccc(O)cc3)c(=O)c12` gave a melting point of 316 to 318 °C.

Molecule `Cn1cncc1C(O)(c1ccc(Cl)cc1)c1ccc2c(c1)c(CCc1cccc(Cl)c1)cc(=O)n2C` (centres undefined) gave a melting point of 190 °C.

`CCC(O)c1ccccc1-c1ccc(C(=O)N2Cc3ccc(C(=O)NCc4cccnc4)n3Cc3ccccc32)cc1` (centres undefined): the melting point fell in the range of 111 to 115 °C.

Take `CC(=O)Nc1cc(-c2ccncn2)c[nH]c1=O`: the melting point is over 250 °C.

`COC(=O)C(Oc1ccc(C(F)(F)F)cc1)c1ccc(OCCCOc2ccc(Cl)cc2)cc1` (centres undefined): the melting point lay within 83 to 84 °C.

`O=S(=O)(CCO)Nc1cc(C(c2cc(F)ccc2F)S(=O)(=O)c2ccc(Cl)cc2)c(Cl)cn1` (centres undefined) gave a melting point of 155 to 158 °C.

Regarding `Cn1c(C(=O)OCc2cc(C(F)(F)F)cc(C(F)(F)F)c2)c(-c2ccccc2)c2ccccc2c1=O`, the melting point lay in the range of 153 to 154 °C.

`CCCc1nc2c(C)cc(-c3nc4ccccc4n3C)cc2n1Cc1ccc(-c2ccccc2NC(=O)C(F)(F)F)cc1` returned a melting point of 115 to 120 °C.

Molecule `CCCCCCCCCCCCc1ccc(S(=O)(=O)Nc2nncs2)cc1` registered a melting point of 126 to 127 °C.
